Test results taken from US6737383B1, “Herbicidal oxadiazolidines” (priority 1999, dated 2004).

Legend:
purple nutsedge = experiment: Test B pre/postemergence purple nutsedge; type: in vivo, Cyperus rotundus
Summary of the method: (§1)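 Test chemicals in a non-phytotoxic solvent mixture with surfactant were sprayed preemergence onto planted seeds and postemergence onto plants 2 to 18 cm tall (1- to 4-leaf stage). After twelve to sixteen days in a greenhouse, injury was visually rated against untreated controls from 0 (no effect) to 10 (complete control).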

smallflower flatsedge = experiment: Test B flood test smallflower flatsedge; type: in vivo, Cyperus difformis; conditions: for S. Flatsedge plant response rating: scale of 0 to 10 where 0 is no effect and 10 is complete control
Summary of the method: (§2)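 Flood test on plants grown to the 2-leaf stage; treated plants kept in greenhouse twelve to sixteen days, then visually rated against controls on a 0 (no effect) to 10 (complete control) scale.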

pigweed = experiment: Test B pre/postemergence pigweed; type: in vivo, Amaranthus retroflexus
Summary of the method: as §1

rape = experiment: Test B pre/postemergence rape; type: in vivo, Brassica napus
Summary of the method: as §1

duck salad = experiment: Test B flood test duck salad; type: in vivo, Heteranthera limosa
Summary of the method: as §2

cocklebur = experiment: Test B pre/postemergence cocklebur; type: in vivo, Xanthium strumarium
Summary of the method: as §1

velvetleaf = experiment: Test B pre/postemergence velvetleaf; type: in vivo, Abutilon theophrasti
Summary of the method: as §1

soybean = experiment: Test B pre/postemergence soybean; type: in vivo, Glycine max
Summary of the method: as §1

wheat = experiment: Test B pre/postemergence wheat; type: in vivo, Triticum aestivum
Summary of the method: as §1

morningglory = experiment: Test B pre/postemergence morningglory; type: in vivo, Ipomoea hederacea
Summary of the method: as §1

wild oat = experiment: Test B pre/postemergence wild oat; type: in vivo, Avena fatua
Summary of the method: as §1

crabgrass = experiment: Test B pre/postemergence crabgrass; type: in vivo, Digitaria sanguinalis
Summary of the method: as §1

corn = experiment: Test B pre/postemergence corn; type: in vivo, Zea mays
Summary of the method: as §1

giant foxtail = experiment: Test B pre/postemergence giant foxtail; type: in vivo, Setaria faberii
Summary of the method: as §1

bedstraw = experiment: Test B pre/postemergence bedstraw; type: in vivo, Galium aparine
Summary of the method: as §1

rice = experiment: Test B flood test rice; type: in vivo, Oryza sativa
Summary of the method: as §2

[1] = Postemergence, Rate 125 g/ha, scale of 0 to 10 where 0 is no effect and 10 is complete control
[2] = Preemergence, Rate 31 g/ha, visual rating, scale 0 to 10 (0 no effect, 10 complete control)
[3] = Preemergence, Rate 62 g/ha, scale 0 to 10 (0 no effect, 10 complete control)
[4] = Preemergence, Rate 125 g/ha, 0 is no effect, 10 is complete control
[5] = Preemergence, Rate 250 g/ha, scale 0 to 10, 0 is no effect, 10 is complete control
[6] = Rate 31 g/ha, Postemergence, scale 0 to 10
[7] = Rate 62 g/ha, Postemergence, scale of 0 to 10 where 0 is no effect and 10 is complete control
[8] = Rate 250 g/ha, Postemergence, scale 0 to 10, 0 is no effect, 10 is complete control
[9] = Rate 250 g/ha, Postemergence (flood test), scale 0 to 10, 0 is no effect, 10 is complete control
[10] = Postemergence (flood test species), Rate 125 g/ha, scale of 0 to 10 where 0 is no effect and 10 is complete control
[11] = Rate 31 g/ha, Postemergence section (flood test species), scale 0 to 10
[12] = Rate 62 g/ha, Postemergence section, flood test species, scale of 0 to 10 where 0 is no effect and 10 is complete control

In the case of Cc1noc(C)c1-n1c(=O)on(C(=O)N(c2ccc(F)cc2F)C(C)C)c1=O [Compound 156], the “Nutsedge plant response rating” value (purple nutsedge; [1]) is reported as 0, the “Nutsedge plant response rating” value (purple nutsedge; [2]) is reported as 0 and the “Nutsedge plant response rating” value (purple nutsedge; [3]) is reported as 0. The “Nutsedge plant response rating (0 to 10 scale)” value (purple nutsedge; [4]) was 0, the “Nutsedge plant response rating” value (purple nutsedge; [5]) was 0 and the “Nutsedge plant response rating” value (purple nutsedge; [6]) was 0. The “Nutsedge plant response rating” value (purple nutsedge; [7]) was 0, the “Plant response rating, Nutsedge” value (purple nutsedge; [8]) was 0 and the “S. Flatsedge plant response rating” value (smallflower flatsedge; Postemergence (flood test species), Rate 125 g/ha) was 0. For the same compound, the “S. Flatsedge plant response rating” value (smallflower flatsedge; Rate 62 g/ha, Postemergence section, flood test species) was 0, the “Plant response rating, S. Flatsedge” value (smallflower flatsedge; [9]) was 0 and the “Redroot pigweed plant response rating” value (pigweed; [1]) was 0. The “Redroot pigweed plant response rating” value (pigweed; [2]) was 0, the “Redroot pigweed plant response rating” value (pigweed; [3]) was 0 and the “Redroot pigweed plant response rating (0 to 10 scale)” value (pigweed; [4]) was 4. For the same compound, the “Redroot pigweed plant response rating” value (pigweed; [5]) was 9, the “Redroot pigweed plant response rating” value (pigweed; [6]) was 0 and the “Redroot pigweed plant response rating” value (pigweed; [7]) was 0. The “Plant response rating, Redroot pigweed” value (pigweed; [8]) was 0, the “Rape plant response rating” value (rape; [1]) was 0 and the “Rape plant response rating” value (rape; [2]) was 0. For the same compound, the “Rape plant response rating” value (rape; [3]) was 0, the “Rape plant response rating (0 to 10 scale)” value (rape; [4]) was 0 and the “Rape plant response rating” value (rape; [5]) was 0. The “Rape plant response rating” value (rape; [6]) was 0, the “Rape plant response rating” value (rape; [7]) was 0 and the “Plant response rating, Rape” value (rape; [8]) was 0. The “Ducksalad plant response rating” value (duck salad; [10]) was 0, the “Ducksalad plant response rating” value (duck salad; [11]) was 0 and the “Ducksalad plant response rating” value (duck salad; [12]) was 0. The “Plant response rating, Ducksalad” value (duck salad; [9]) was 0, the “Cocklebur plant response rating” value (cocklebur; [1]) was 0 and the “Cocklebur plant response rating” value (cocklebur; [2]) was 0. The “Cocklebur plant response rating” value (cocklebur; [3]) was 0, the “Cocklebur plant response rating (0 to 10 scale)” value (cocklebur; [4]) was 0 and the “Cocklebur plant response rating” value (cocklebur; [5]) was 0. The “Cocklebur plant response rating” value (cocklebur; [6]) was 0, the “Cocklebur plant response rating” value (cocklebur; [7]) was 0 and the “Plant response rating, Cocklebur” value (cocklebur; [8]) was 0. For the same compound, the “Velvetleaf plant response rating” value (velvetleaf; [2]) was 0, the “Velvetleaf plant response rating” value (velvetleaf; [3]) was 0 and the “Velvetleaf plant response rating (0 to 10 scale)” value (velvetleaf; [4]) was 0. For the same compound, the “Velvetleaf plant response rating” value (velvetleaf; [5]) was 0, the “Velvetleaf plant response rating” value (velvetleaf; [7]) was 0 and the “Plant response rating, Velvetleaf” value (velvetleaf; [8]) was 0. The “Soybean plant response rating” value (soybean; [1]) was 1, the “Soybean plant response rating” value (soybean; [2]) was 0 and the “Soybean plant response rating” value (soybean; [3]) was 0. For the same compound, the “Soybean plant response rating (0 to 10 scale)” value (soybean; [4]) was 0, the “Soybean plant response rating” value (soybean; [5]) was 0 and the “Soybean plant response rating” value (soybean; [7]) was 1. For the same compound, the “Plant response rating, Soybean” value (soybean; [8]) was 1, the “Wheat plant response rating” value (wheat; [2]) was 0 and the “Wheat plant response rating” value (wheat; [3]) was 0. For the same compound, the “Wheat plant response rating (0 to 10 scale)” value (wheat; [4]) was 0, the “Wheat plant response rating” value (wheat; [5]) was 0 and the “Wheat plant response rating” value (wheat; [7]) was 0. The “Plant response rating, Wheat” value (wheat; [8]) was 0, the “Morningglory plant response rating” value (morningglory; [1]) was 1 and the “Morningglory plant response rating” value (morningglory; [2]) was 0. For the same compound, the “Morningglory plant response rating” value (morningglory; [3]) was 0, the “Morningglory plant response rating (0 to 10 scale)” value (morningglory; [4]) was 0 and the “Morningglory plant response rating” value (morningglory; [5]) was 0. For the same compound, the “Morningglory plant response rating” value (morningglory; [6]) was 0, the “Morningglory plant response rating” value (morningglory; [7]) was 0 and the “Plant response rating, Morningglory” value (morningglory; [8]) was 2. For the same compound, the “Wild oats plant response rating” value (wild oat; [2]) was 0, the “Wild oats plant response rating” value (wild oat; [3]) was 0 and the “Wild oats plant response rating (0 to 10 scale)” value (wild oat; [4]) was 0. The “Wild oats plant response rating” value (wild oat; [5]) was 0, the “Wild oats plant response rating” value (wild oat; [7]) was 0 and the “Plant response rating, Wild oats” value (wild oat; [8]) was 0. For the same compound, the “Crabgrass plant response rating” value (crabgrass; [1]) was 0, the “Crabgrass plant response rating” value (crabgrass; [2]) was 0 and the “Crabgrass plant response rating” value (crabgrass; [3]) was 0. For the same compound, the “Crabgrass plant response rating (0 to 10 scale)” value (crabgrass; [4]) was 4, the “Crabgrass plant response rating” value (crabgrass; [5]) was 6 and the “Crabgrass plant response rating” value (crabgrass; [6]) was 0. For the same compound, the “Crabgrass plant response rating” value (crabgrass; [7]) was 0, the “Plant response rating, Crabgrass” value (crabgrass; [8]) was 0 and the “Corn plant response rating” value (corn; [1]) was 0. The “Corn plant response rating” value (corn; [2]) was 0, the “Corn plant response rating” value (corn; [3]) was 0 and the “Corn plant response rating (0 to 10 scale)” value (corn; [4]) was 0. The “Corn plant response rating” value (corn; [5]) was 0, the “Corn plant response rating” value (corn; [6]) was 0 and the “Corn plant response rating” value (corn; [7]) was 0. The “Plant response rating, Corn” value (corn; [8]) was 0, the “Giant foxtail plant response rating” value (giant foxtail; [1]) was 0 and the “Giant foxtail plant response rating” value (giant foxtail; [2]) was 0. The “Giant foxtail plant response rating” value (giant foxtail; [3]) was 0, the “Giant foxtail plant response rating (0 to 10 scale)” value (giant foxtail; [4]) was 2 and the “Giant foxtail plant response rating” value (giant foxtail; [5]) was 7. For the same compound, the “Giant foxtail plant response rating” value (giant foxtail; [6]) was 0, the “Giant foxtail plant response rating” value (giant foxtail; [7]) was 0 and the “Plant response rating, Giant foxtail” value (giant foxtail; [8]) was 0. The “Bedstraw plant response rating” value (bedstraw; [1]) was 0, the “Bedstraw plant response rating” value (bedstraw; [2]) was 0 and the “Bedstraw plant response rating” value (bedstraw; [3]) was 0. The “Bedstraw plant response rating (0 to 10 scale)” value (bedstraw; [4]) was 0, the “Bedstraw plant response rating” value (bedstraw; [5]) was 0 and the “Bedstraw plant response rating” value (bedstraw; [6]) was 0. The “Bedstraw plant response rating” value (bedstraw; [7]) was 0, the “Plant response rating, Bedstraw” value (bedstraw; [8]) was 0 and the “Rice plant response rating” value (rice; [10]) was 0. The “Rice plant response rating” value (rice; [11]) was 0, the “Rice plant response rating” value (rice; [12]) was 0 and the “Plant response rating, Rice” value (rice; [9]) was 0.
